# Assay results: patent US20250332300A1 (priority 2024, published 2025)
# pIC50, pKd: −log10 of the molar value. Starred links: 1 amine or outer side, 2 acyl side, 3 side chain; linkers in the order of their positions; H or OH if unused. Positions of bridges follow the written chain, without caps; N, C: chain ends. Non-standard residues stand in square brackets, D forms with d. Residues, ends and D or L forms follow the SMILES beside them. Trp(5-OH) = N[C@@H](Cc1c[nH]c2ccc(O)cc12)C(=O)O; NMePhe(4-F) = CN[C@@H](Cc1ccc(F)cc1)C(=O)O; NMehPhe = CN[C@@H](CCc1ccccc1)C(=O)O; Glutaryl = O=C(CCCC(=O)[*:2])[*:1]; Aad = N[C@@H](CCCC(=O)O)C(=O)O; Gly(cPr) = N[C@H](C(=O)O)C1CC1; Ahp(2) = CCCCC[C@H](N)C(=O)O; NMeDab = CN[C@@H](CCN)C(=O)O; NMeK = CN[C@@H](CCCCN)C(=O)O; NMeDap = CN[C@@H](CN)C(=O)O; NMeS = CN[C@@H](CO)C(=O)O
# Assays:
# Format in all cases: binding
# [1] = biological target: T1, human HER2 (23-652) (Homo sapiens, UniProt P04626); test: Surface plasmon resonance (SPR) for assessment of peptide affinity, human HER2; parameters: towards human HER2 (23-652) and mouse HER2 (23-653); made in house; conditions: SPR, human HER2 extracellular domain, 25° C., 1:1 binding model; read-out: huHER2-SPR-ONC KD
# How it was run: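 Binding kinetics fitted from sensorgrams with 280 s peptide association then 3000 s dissociation (30 uL/min), using HER2 (23-652) either directly immobilized (SA/CM5) or anti-Fc-captured; 3 M magnesium chloride used for regeneration.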
# [2] = biological target: T2, mouse HER2 (23-653) (Mus musculus, UniProt P70424); test: TR-FRET competition assay for peptide potency, mouse HER2; parameters: mouse HER2 (23-653) using a Cy5 labeled peptide as a probe; made in house; host or cells: mammalian cells; conditions: TR-FRET competition with Cy5 labeled peptide probe, 0.1 nM mouse HER2, 24 h incubation; read-out: moHER2 TR-FRET IC50
# [3] = biological target: T1, human HER2 (23-652); test: TR-FRET competition assay for peptide potency, human HER2; parameters: towards human HER2 (23-652) and mouse HER2 (23-653); made in house; host or cells: mammalian cells; conditions: read-out: huHER2 TR-FRET IC50
# [4] = biological target: T2, mouse HER2 (23-653); test: Surface plasmon resonance (SPR) for assessment of peptide affinity, mouse HER2; parameters: mouse HER2 (23-653) using a Cy5 labeled peptide as a probe; made in house; conditions: SPR, mouse HER2 extracellular domain, 25° C., 1:1 binding model; read-out: moHER2-SPR-ONC KD
# Source text: Each protein was immobilized either onto a SA sensorchip (Cytiva, BR-1005-31) or CM5 sensorchip (Cytiva, BR-1005-30) to a density of 800-2000 RU.
SMILES,pKd [1],pIC50 [2],pIC50 [3],pKd [4]
"CC(=O)NCCCC[C@H]1C(=O)N[C@@H](Cc2c[nH]c3ccc(O)cc23)C(=O)N[C@@H](Cc2c[nH]c3ccccc23)C(=O)N[C@@H](C2CC2)C(=O)N(C)[C@H](C(=O)N(C)[C@@H](Cc2ccc(F)cc2)C(N)=O)CNC(=O)CCCC(=O)N[C@@H](Cc2ccc(O)cc2)C(=O)N[C@@H](CO)C(=O)N(C)[C@@H](CCc2ccccc2)C(=O)N1C [Example A7, (3S,6S,9S,12S,15S,18S,21S,24S)-9-((1H-indol-3-yl)methyl)-15-(4-acetamidobutyl)-N-((S)-1-amino-3-(4-fluorophenyl)-1-oxopropan-2-yl)-6-cyclopropyl-12-((5-hydroxy-1H-indol-3-yl)methyl)-24-(4-hydroxybenzyl)-21-(hydroxymethyl)-N,4,16,19-tetramethyl-5,8,11,14,17,20,23,26,30-nonaoxo-18-phenethyl-1,4,7,10,13,16,19,22,25-nonaazacyclotriacontane-3-carboxamide] (YS[NMehPhe][NMeK](Ac)[Trp(5-OH)]W[Gly(cPr)][NMeDap][NMePhe(4-F)]-NH2; linker N-8 via Glutaryl)",7.74,7.40,7.74,7.64
"CC(=O)N[C@H]1CC(=O)NCC[C@@H](C(=O)N(C)[C@@H](Cc2ccc(F)cc2)C(N)=O)N(C)C(=O)[C@H](C2CC2)NC(=O)[C@H](Cc2c[nH]c3ccccc23)NC(=O)[C@H](Cc2c[nH]c3ccc(O)cc23)NC(=O)[C@H](CO)N(C)C(=O)[C@H](CCc2ccccc2)N(C)C(=O)[C@H](CO)NC(=O)[C@H](Cc2ccc(O)cc2)NC1=O [Example A9, (2S,5S,8S,11S,14S,17S,20S,23S,29S)-17-((1H-indol-3-yl)methyl)-29-acetamido-N-((S)-1-amino-3-(4-fluorophenyl)-1-oxopropan-2-yl)-20-cyclopropyl-14-((5-hydroxy-1H-indol-3-yl)methyl)-2-(4-hydroxybenzyl)-5,11-bis(hydroxymethyl)-N,7,10,22-tetramethyl-3,6,9,12,15,18,21,27,30-nonaoxo-8-phenethyl-1,4,7,10,13,16,19,22,26-nonaazacyclotriacontane-23-carboxamide] (Ac-DYS[NMehPhe][NMeS][Trp(5-OH)]W[Gly(cPr)][NMeDab][NMePhe(4-F)]-NH2; lactam 1-9)",6.93,6.76,7.12,6.61
"CC(=O)N[C@H]1CCC(=O)NCC[C@@H](C(=O)N(C)[C@@H](Cc2ccc(F)cc2)C(N)=O)N(C)C(=O)[C@H](C2CC2)NC(=O)[C@H](Cc2c[nH]c3ccccc23)NC(=O)[C@H](Cc2c[nH]c3ccc(O)cc23)NC(=O)[C@H](CO)N(C)C(=O)[C@H](CCc2ccccc2)N(C)C(=O)[C@H](CO)NC(=O)[C@H](Cc2ccc(O)cc2)NC1=O [Example A10, (2S,5S,8S,11S,14S,17S,20S,23S,30S)-17-((1H-indol-3-yl)methyl)-30-acetamido-N-((S)-1-amino-3-(4-fluorophenyl)-1-oxopropan-2-yl)-20-cyclopropyl-14-((5-hydroxy-1H-indol-3-yl)methyl)-2-(4-hydroxybenzyl)-5,11-bis(hydroxymethyl)-N,7,10,22-tetramethyl-3,6,9,12,15,18,21,27,31-nonaoxo-8-phenethyl-1,4,7,10,13,16,19,22,26-nonaazacyclohentriacontane-23-carboxamide]",6.32,6.16,6.27,6.28
"CCCCC[C@@H]1NC(=O)[C@H](CCCCNC(C)=O)N(C)C(=O)[C@H](CCc2ccccc2)N(C)C(=O)[C@H](CO)NC(=O)[C@H](Cc2ccc(O)cc2)NC(=O)[C@@H](NC(C)=O)CCCC(=O)NC[C@@H](C(=O)N(C)[C@@H](Cc2ccc(F)cc2)C(N)=O)N(C)C(=O)[C@H](C2CC2)NC(=O)[C@H](Cc2c[nH]c3ccccc23)NC1=O [Example A11, (3S,6S,9S,12S,15S,18S,21S,24S,27S)-9-((1H-indol-3-yl)methyl)-27-acetamido-15-(4-acetamidobutyl)-N-((S)-1-amino-3-(4-fluorophenyl)-1-oxopropan-2-yl)-6-cyclopropyl-24-(4-hydroxybenzyl)-21-(hydroxymethyl)-N,4,16,19-tetramethyl-5,8,11,14,17,20,23,26,31-nonaoxo-12-pentyl-18-phenethyl-1,4,7,10,13,16,19,22,25-nonaazacyclohentriacontane-3-carboxamide] (Ac-[Aad]YS[NMehPhe][NMeK](Ac)[Ahp(2)]W[Gly(cPr)][NMeDap][NMePhe(4-F)]-NH2; lactam 1-9)",6.35,< 6.00,6.02,6.10

# Now those with a higher pKd [1], led by results:
pKd [1],pIC50 [2],pIC50 [3],pKd [4],SMILES
9.30,9.10,9.40,9.22,"CC(=O)NCCCC[C@H]1C(=O)N[C@@H](Cc2c[nH]c3ccc(O)cc23)C(=O)N[C@@H](Cc2c[nH]c3ccccc23)C(=O)N[C@@H](C2CC2)C(=O)N(C)[C@H](C(=O)N(C)[C@@H](Cc2ccc(F)cc2)C(N)=O)CNC(=O)CCC[C@H](NC(C)=O)C(=O)N[C@@H](Cc2ccc(O)cc2)C(=O)N[C@@H](CO)C(=O)N(C)[C@@H](CCc2ccccc2)C(=O)N1C [Example A5, (3S,6S,9S,12S,15S,18S,21S,24S,27S)-9-((1H-indol-3-yl)methyl)-27-acetamido-15-(4-acetamidobutyl)-N-((S)-1-amino-3-(4-fluorophenyl)-1-oxopropan-2-yl)-6-cyclopropyl-12-((5-hydroxy-1H-indol-3-yl)methyl)-24-(4-hydroxybenzyl)-21-(hydroxymethyl)-N,4,16,19-tetramethyl-5,8,11,14,17,20,23,26,31-nonaoxo-18-phenethyl-1,4,7,10,13,16,19,22,25-nonaazacyclohentriacontane-3-carboxamide] (Ac-[Aad]YS[NMehPhe][NMeK](Ac)[Trp(5-OH)]W[Gly(cPr)][NMeDap][NMePhe(4-F)]-NH2; lactam 1-9)"
9.40,9.52,9.52,9.70,"CC(=O)NCCCC[C@H]1C(=O)N[C@@H](Cc2c[nH]c3ccc(O)cc23)C(=O)N[C@@H](Cc2c[nH]c3ccccc23)C(=O)N[C@@H](C2CC2)C(=O)N(C)[C@H](C(=O)N(C)[C@@H](Cc2ccc(F)cc2)C(=O)N2CCC[C@H]2C(N)=O)CNC(=O)CCC[C@H](NC(C)=O)C(=O)N[C@@H](Cc2ccc(O)cc2)C(=O)N[C@@H](CO)C(=O)N(C)[C@@H](CCc2ccccc2)C(=O)N1C [Example A2, (3S,6S,9S,12S,15S,18S,21S,24S,27S)-9-((1H-indol-3-yl)methyl)-27-acetamido-15-(4-acetamidobutyl)-N-((S)-1-((S)-2-carbamoylpyrrolidin-1-yl)-3-(4-fluorophenyl)-1-oxopropan-2-yl)-6-cyclopropyl-12-((5-hydroxy-1H-indol-3-yl)methyl)-24-(4-hydroxybenzyl)-21-(hydroxymethyl)-N,4,16,19-tetramethyl-5,8,11,14,17,20,23,26,31-nonaoxo-18-phenethyl-1,4,7,10,13,16,19,22,25-nonaazacyclohentriacontane-3-carboxamide]"
